Measured values published in US12616706B2, “Compositions and methods of use comprising substances with neural plasticity actions administered at non-psychedelic/psychotomimetic dosages and formulations” (Arbormentis LLC, priority 2019, dated 2026).
Read-outs that look alike come from different tables or passages of the source.

Experiments:
synapsin 1 = test: Synapsin 1 protein expression in lateral cortex (Western blot); type: in vivo, mouse; conditions: adult mice; not significant
Protocol: (§1) Mice were euthanized by cervical dislocation. Immediately after the sample, fresh tissues were cut isolating 4 brain regions (cerebellum, lateral cortex, olfactory bulb, and the remaining brain), quickly collected and put in cryovials in liquid nitrogen and then kept at −80° C.
(§2) Brain tissues were lysed in RIPA lysis buffer (Invitrogen) and 1% (v/v) protease and phosphatase inhibitor cocktail (Sigma). Proteins were extracted by centrifugation at 14000 rpm at 4° C. for 30 minutes. Bicinchoninic Acid Assay (BCA) kit (1113 catalog #23225 Thermo-Scientific) was used to determine the protein concentration following the manufacturer's instructions. Western blot analyses to determine NMDAR 1 (primary antibody: Abcam, ab68144), PSD95 (Bioss, bs-0179R-TR), p70 (Bioss, bs-3498R-TR) and synapsin 1 (Bioss, bs-3501 R-TR) protein expression were performed using 30 μg per lane of nuclear or lateral cortex lysates. SDS-PAGE was performed on 8% polyacrylamide gels in reducing-denaturing condition and proteins were transferred to a 0.45 μm nitrocellulose membrane (BioRad Laboratories). Signal intensity of immunoreactive bands was analyzed by the Quantity One software (Bio-Rad Laboratories S.r.l.) and was normalized to that of the loading control GAPDH.

c57BL/6 male mice [1] = test: Locomotion Activity Test (LMA), mice; type: in vivo, mouse; conditions: chronic (14 day) low dose 0.05 mg/Kg
Protocol: In order to ascertain whether the chronic administration of low dose psilocin-carbamate alters behavior in tested mice, the present inventors performed the Locomotion Activity Test (LMA), the Novelty Suppressed Feeding (NSF) test and the olfactory habitation/dishabituation test before and after the psilocin-carbamate treatment.
(§3) LMA has the aim of assessing spontaneous locomotor activity in laboratory animals. This test is performed in a gray arena (open field) exposed to light of regulated intensity (24 and 30 lux), avoiding light-shadow zones within the perimeter in which the experiment takes place. Along the base of the open field, 4 standard sized squares have been drawn, clearly visible even in the dark and large enough to allow the animal to remain inside them in all its length. The LMA test has been preceded by one hour of habituation, at the end of which the rat was inserted inside the open field, in one of the previously designed squares. The movements and behaviors in reaction to the environment were then recorded for 10 minutes.
Three fundamental aspects were assessed: 1. the number of crossings, i.e., the number of crossings made by the animal from one square to another, passing the line defining it with both legs. […]

c57BL/6 male mice [2] = test: Toxicity and tolerability observation, high fructose mice; type: in vivo, mouse; conditions: young
Protocol: (§4) Mice were fed with standard diet and fructose (30% w/v in drinking water) was added to their diet 4 days before randomization.
During the experiment, the animals were carefully monitored every day for a period not exceeding the maximum experimental endpoints. Access to water (30% w/v fructose) and food ad libitum was allowed. No obvious clinical symptoms were observed during the experimental period.

[3] = Body and liver weight at sacrifice, mice; type: in vivo, mouse; conditions: 0.05 mg/kg daily
Protocol: as §4

NMDAR2B = NMDAR2B protein expression in ARPE-19 cells (immunofluorescence); type: cell-based; conditions: chronic treatment with psilocin carbamate for 96 hours
Protocol: (§5) First, the present inventors assessed the expression of three NMDAR subunits (NMDAR1, NMDAR2A, NMDAR2B) and two 5-HT2 subtypes (5-HT2A, 5-HT2C) by immunofluorescence coupled to confocal microscopy. 7,500 cells/well were plated in a 24-well plate on sterile glass coverslips. The next day, the immunofluorescence analysis was performed. The following primary antibodies were used: anti-NMDAR1A (Abcam, ab68144), NMDAR2A (Bioss, bs-3507R-TR), NMDAR2B (Bioss, bs-0222R-TR), 5-HT2A (Bioss, bs-12049R), 5-HT2C (Bioss, 2959R), and the secondary antibody goat anti-rabbit IgG (GeneTex, GTX213110-04). The images of the immunostained cells were acquired by means of a confocal microscope Zeiss LSM 800, using a 63× magnification and can be seen in FIGS. 9A-9E. ImageJ software was used to quantify the intensity of the fluorescent signal.
(§6) 7,500 cells/well were plated in a 24-well plate on sterile glass coverslips. […] After 6 days an immunofluorescence analysis coupled to confocal microscopy was performed with the primary and secondary antibodies described above.

[4] = Blood glucose after 2-hours fasting, mice; type: in vivo, mouse; conditions: 0.05 mg/kg daily
Protocol: as §4
Before sacrifice, the present inventors measured the blood glucose concentration of the mice after a 2-hours fasting.

NMDAR1 = NMDAR1 protein expression in lateral cortex (Western blot); type: in vivo, mouse; conditions: 0.05 mg/kg daily
Protocol: as §1, §2

p70 = p70 protein expression in lateral cortex (Western blot); type: in vivo, mouse; conditions: not detected in adult mice
Protocol: as §1, §2

PSD95 = PSD95 protein expression in lateral cortex (Western blot); type: in vivo, mouse; conditions: not significant
Protocol: as §1, §2

NMDAR2A = NMDAR2A protein expression in ARPE-19 cells (immunofluorescence); type: cell-based; conditions: chronic treatment with psilocin carbamate for 96 hours
Protocol: as §5, §6

[5] = psilocybin 10, 20, 30 mg; cited from earlier work
[6] = set-up: AUC: unit not given beside the values; conditions: cited from earlier work
Western Diet fed rats [7] = test: Locomotion Activity Test (LMA), WD rats; type: in vivo, rat; conditions: chronic (15 day) low dose 0.05 mg/Kg
Protocol: as §3, with “In order to ascertain whether the chronic administration of low dose psilocybin alters behavior in WD fed rats, the present inventors performed the Locomotion Activity Test (LMA) before and after the psilocybin treatment (see FIGS. 7A-7C). This test has” for “LMA has”
In the LMA test, three fundamental aspects were assessed: 1. the number of crossings, i.e., the number of crossings made by the animal from one square to another, passing the line defining it with both legs. This value gives an indication of the distance traveled by the animal during the test and of its locomotor activity; 2. the number of rearings, i.e, the number of times the animal lifts up on the two posterior legs. […]

Western Diet fed rats [8] = test: Liver histology (hematoxylin-eosin), hepatic steatosis; conditions: WD rats, 0.05 mg/kg 15 days; median (range in next column); WD alone 15
[9] = test system: Ki67 positive cells in the subventricular zone; test: Neurogenesis in SVZ, Ki67 positive cells; type: in vivo, rat; conditions: WD rats, 0.05 mg/Kg gastric gavage 15 days; WD 2722±225, SD 4601±17
Protocol: Methods: To perform immunohistochemistry, rats were euthanized and then perfused with 0.9% saline followed by 4% paraformaldehyde (PFA) in 1× phosphate saline buffer (PBS) (rats n tot=8, n=2 for each condition). Rats brains were promptly dissected and then post-fixed in 4% PFA for 48 hours. Brains were embedded in 2.5% agarose (Sigma-Aldrich) and then sectioned in sagittal sections (40 μm thick) at the vibratome (Vibratome VT1000S, Leica). Sagittal brain sections including the subventricular zone, were treated with a blocking solution of 10% normal goat serum (Jackson ImmunoResearch) in 1×PBS for 1 hour and then stained with rabbit anti-Ki67 monoclonal antibody (Abcam, AB 16667) (1:200) overnight. […] Brain sections were mounted with Aqua-Poly/Mount (Polysciences). Images of the sagittal sections containing the subventricular zone were acquired at the confocal microscope (Zeiss LSM 700) equipped with an EC Plan-Neofluar 20×/0.50 M27 objective (Zeiss). Ki67 positive cells were counted along the lateral wall of the lateral ventricles in rat brain sagittal sections, using ImageJ software (RRID: nif-000030467).

CC[C@H](C)[C@H](NC(=O)Oc1cccc2[nH]cc(CCN(C)C)c12)C(=O)O [psilocin-carbamate]
Synapsin 1 protein expression, lateral cortex (synapsin 1): tended to increase | Psychedelic behavioral effects (c57BL/6 male mice [1]): no evidence of psychedelic behavioral effects | Safety and tolerability (c57BL/6 male mice [2]; 0.05 mg/kg daily for 14 days, adult and old mice): safe and well-tolerated | Signs of toxicity and mortality (c57BL/6 male mice [2]; adult, old mice, 0.05 mg/kg gastric gavage, 14 days): No signs of toxicity and no mortality | Liver weight at sacrifice ([3]; adult mice): decrease | Body weight at sacrifice ([3]; adult mice, p<0.05): decrease | Body and liver weight ([3]; young mice): no effect | NMDAR2B expression (NMDAR2B): reduction | Blood glucose control ([4]; mice): no effect | Blood glucose concentration ([4]; old mice): tendency towards a lower blood glucose concentration | NMDAR1 protein expression, lateral cortex (NMDAR1; adult mice): tended to decrease | NMDAR1 protein expression, lateral cortex (NMDAR1; young and old mice): tended to increase | p70 protein expression, lateral cortex (p70): no significant differences | PSD95 protein expression, lateral cortex (PSD95; adult mice, tendency): decrease | PSD95 protein expression, lateral cortex (PSD95; young mice): tended to increase | NMDAR2A expression (NMDAR2A): reduction

CN(C)CCc1c[nH]c2cccc(OP(=O)(O)O)c12 [psilocybin]
Psychomotor performance, working memory, episodic memory, associative learning, visual perception [5]: dose-dependent negative effects | AUC ([6]; 1 mg IV psilocybin): 240+−55 | Cmax ([6]; 1 mg IV psilocybin): 12.9+−5.6 ng/ml | AUC ([6]; oral psilocybin 10-20 mg): 1963+−659 | Cmax ([6]; oral psilocybin 10-20 mg): 8.2+−2.8 ng/ml | Tmax ([6]; oral psilocybin 10-20 mg): 105+−37 min | Psychedelic behavioral effects (Western Diet fed rats [7]): no evidence of psychedelic behavioral effects | % Hepatic macrovescicular steatosis (Western Diet fed rats [8]): 5% | New cells (Ki67 positive) in SVZ, n [9]: 3404±199
